Assay results: patent US20160067272A1, “METHODS FOR TREATING IMMUNE DISEASES” (priority 2013, published 2016)
Blank lines part the entries; values can stand above or below the molecule they belong to.

Key:
CD4+CD25+ nTregs = experiment: IL-17A secretion by nTregs cultured with NAD+ and purinergic receptor antagonists; conditions: for reduction of IL-17A cytokine production induced by NAD+: both selective antagonists (5-BDBD and A804598) added; for production of IL-17A cytokine induced by NAD+: nTregs cultured with NAD+ and the selective antagonist (5-BDBD: P2RX4; A804598: P2RX7; MRS 2279: P2RY1), ELISA
Tph-1 = target: T1, Tph-1 (Mus musculus, UniProt P17532); experiment: EAE mouse model with Tph-1 inhibition (NAD+ plus p-Chlorophenylalanine); format: in vivo
T1 construct: from tissue; host or cells: whole animal: C57BL/6 mice (Charles River Laboratories)
T1 sequence (P17532 1-447): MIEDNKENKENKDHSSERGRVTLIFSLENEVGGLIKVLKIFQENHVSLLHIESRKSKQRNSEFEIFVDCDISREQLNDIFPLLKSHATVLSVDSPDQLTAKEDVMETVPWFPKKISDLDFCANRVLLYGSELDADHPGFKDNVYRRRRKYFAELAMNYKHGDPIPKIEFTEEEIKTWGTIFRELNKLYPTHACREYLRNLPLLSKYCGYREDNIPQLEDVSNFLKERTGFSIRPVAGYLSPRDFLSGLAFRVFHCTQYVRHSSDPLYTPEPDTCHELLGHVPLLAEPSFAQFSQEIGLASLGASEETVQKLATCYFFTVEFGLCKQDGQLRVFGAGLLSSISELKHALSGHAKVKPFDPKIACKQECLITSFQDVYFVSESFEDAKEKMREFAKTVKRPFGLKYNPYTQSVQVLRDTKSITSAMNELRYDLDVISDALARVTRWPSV
Protocol: Tph-1 has been very recently shown to prevent from allograft rejection and EAE^45. Thus, it was tested, in vivo, whether NAD^+ protects from EAE and regulates CD4^+ T cell differentiation through Tph1. Mice were subjected to EAE and were treated daily with a placebo solution (PBS) or NAD^+ in addition to p-Chlorophenylalanine, a specific inhibitor of Tph-1.
Onsets of clinical signs of EAE in mice injected with MOG peptide and a placebo solution appeared after 11 days (FIG. 6A). […] However, when NAD^+ treated mice received simultaneously a treatment with a Tph-1 inhibitor, onset of clinical signs of EAE appeared after 11 days.
EAE was induced in 10-week-old C57BL/6 mice using Hooke Labs EAE induction kit (EK-2110) according to manufacturer's instructions. […] For NAD^+ treatment mice received a daily intraperitoneal injection (60 mg in 100 μl in PBS) or a placebo solution (100 μl of PBS) at the same day than MOG immunization. Mice were sacrificed at day 18 and single cell suspension was obtained from spleens for flow cytometry analysis. To test whether NAD^+ was able to reverse the development of EAE, another group of mice was treated daily (for a period of 10 days) with NAD^+ (60 mg/mouse) or a placebo solution 15 days after MOG immunization when mice were scored 3 with a bilateral hindlimb paresis. EAE disease progression was monitored. For Tph-1 or CA3 inhibition, mice received daily intraperitoneal injections (simultaneous to NAD^−) of p-Chlorophenylalanine (1 ml of a 10 mM solution stock, catalog number 0938, Tocris Bioscience) or N-[[[(1S)-1-Carboxy-3-methylbutyl]amino]carbonyl]-L-glutamic acid (100 μl of a 100 mM solution stock, ZJ 43 catalog number 2675,Tocris Bioscience), respectively.

[1] = NAD+ plus Tph-1 inhibition, flow cytometry
[2] = NAD+ treatment followed by Tph-1 inhibition, spleen, flow cytometry

reduction of IL-17A cytokine production induced by NAD+ (CD4+CD25+ nTregs): complete
production of IL-17A cytokine induced by NAD+ (CD4+CD25+ nTregs): dramatic reduced production
Structure (SMILES): C[C@H](NC(=NC#N)Nc1cccc2ncccc12)c1ccccc1 [A804598, 2-cyano-1-[(1S)-1-phenylethyl]-3-quinolin-5-ylguanidine]

production of IL-17A cytokine induced by NAD+ (CD4+CD25+ nTregs): did not change
Structure (SMILES): CNc1nc(Cl)nc2c1ncn2[C@H]1C[C@H](OP(=O)(O)O)[C@]2(COP(=O)(O)O)C[C@H]12 [MRS 2279, 2-Chloro N(6)-methyl-(N)-methanocarba-2′-deoxyadenosine-3′,5′-bisphosphate]

Structure (SMILES): N[C@@H](Cc1ccc(Cl)cc1)C(=O)O (racemic) [p-Chlorophenylalanine]
clinical observation (Tph-1; EAE mice treated with NAD+ and Tph-1 inhibitor): hindlimb paralysis and became rapidly lethargic
clinical signs of EAE vs MOG + placebo group (Tph-1; NAD+ and p-Chlorophenylalanine, 13 days after MOG immunization): more severe clinical signs of EAE
CD4+CD25+Foxp3+ cell frequencies (Tph-1; [1]): dramatic decrease
IL-17A+IL-23R+ cells (Tph-1; [1]): significant increase
onset of clinical signs of EAE (Tph-1; NAD+ treated mice receiving Tph-1 inhibitor simultaneously, after MOG immunization): 11 days
IL-10/IFNγ producing cells (Tph-1; [2]): reduced systemically
IL-17A producing cells (Tph-1; [2]): reduced systemically

Structure (SMILES): O=C1CN=C(c2cccc(Br)c2)c2oc3ccccc3c2N1 [5-BDBD]
reduction of IL-17A cytokine production induced by NAD+ (CD4+CD25+ nTregs): complete
production of IL-17A cytokine induced by NAD+ (CD4+CD25+ nTregs): dramatic reduced production
